The results in this text go back to US20100292222A1, “CHEMICAL COMPOUNDS 751” (ASTRAZENECA AB, priority 2009, published 2010).

The experiment concerns the target T1, Androgen Receptor (AR) (Homo sapiens, UniProt P10275, T878A).
T1 construct: cell based immuno-fluorescence assay using the LNCaP prostate epithelial cell line; host or cells: LNCaP clone FGC prostate carcinoma cells
T1 sequence (P10275 1-920 T878A): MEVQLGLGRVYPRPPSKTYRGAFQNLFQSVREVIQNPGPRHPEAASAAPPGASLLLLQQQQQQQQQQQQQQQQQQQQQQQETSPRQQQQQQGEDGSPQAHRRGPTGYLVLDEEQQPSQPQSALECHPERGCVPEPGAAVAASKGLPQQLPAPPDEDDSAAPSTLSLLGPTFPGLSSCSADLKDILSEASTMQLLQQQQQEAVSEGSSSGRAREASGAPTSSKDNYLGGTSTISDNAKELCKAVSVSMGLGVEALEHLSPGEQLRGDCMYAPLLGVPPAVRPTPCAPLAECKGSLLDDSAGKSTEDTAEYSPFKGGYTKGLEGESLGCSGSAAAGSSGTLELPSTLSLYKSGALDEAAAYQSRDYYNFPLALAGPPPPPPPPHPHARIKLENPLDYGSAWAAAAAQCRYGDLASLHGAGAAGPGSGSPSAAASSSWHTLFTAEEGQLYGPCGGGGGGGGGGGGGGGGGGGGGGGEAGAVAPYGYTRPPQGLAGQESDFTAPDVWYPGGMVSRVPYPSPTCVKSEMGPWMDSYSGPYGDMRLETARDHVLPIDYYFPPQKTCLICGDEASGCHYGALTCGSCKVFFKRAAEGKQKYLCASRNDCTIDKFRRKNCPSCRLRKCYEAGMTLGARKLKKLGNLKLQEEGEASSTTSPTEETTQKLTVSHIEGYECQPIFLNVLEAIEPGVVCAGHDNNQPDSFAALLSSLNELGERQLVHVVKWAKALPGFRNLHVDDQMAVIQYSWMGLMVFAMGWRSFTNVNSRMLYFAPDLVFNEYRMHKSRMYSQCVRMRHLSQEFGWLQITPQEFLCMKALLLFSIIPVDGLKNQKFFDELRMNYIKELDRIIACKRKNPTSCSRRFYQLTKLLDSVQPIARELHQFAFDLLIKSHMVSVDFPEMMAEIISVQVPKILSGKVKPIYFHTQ
Description: LNCaP Androgen Receptor Down-Regulation Cell Assay. Type of experiment: cell-based. Conditions: LNCaP prostate carcinoma cell line; 20-22 hours incubation; immunofluorescence; 50% reduction of the AR signal. As for the experimental part:
The ability of compounds to reduce Androgen Receptor (AR) numbers was assessed in a cell based immuno-fluorescence assay using the LNCaP prostate epithelial cell line.
This immunofluorescence end point assay measures the ability of a test compound to down-regulate and reduce measured levels of the AR in the LNCaP prostate carcinoma cell line (LNCaP clone FGC (CRL-1740) obtained from the American Type Culture Collection (ATCC)).
LNCaP cells were cultured in Growth Medium (phenol red free Roswell Park Memorial Institute (RPMI) 1640 (Invitrogen Code no. 11835-063) containing 2 mM L-Glutamine (Invitrogen Code no. 25030-024) and 1% (v/v) Penicillin/Streptomycin (10000 units/ml Penicillin and 10000 μg/ml of Streptomycin utilising penicillin G (sodium salt) and streptomycin sulphate: prepared in normal saline, Invitrogen Code no. 15140122) and 10% (v/v) foetal bovine serum (FBS)) in a 5% CO2 air incubator at 37° C. Cells for assay were harvested from T175 stock flasks by washing once in PBS (phosphate buffered saline, pH 7.4) (Invitrogen Code no. 14190-094) and harvested using 5 mls of 1× Trypsin/ethylaminediaminetetraacetic acid (EDTA) (10× Trypsin-EDTA, 5.0 g/L Trypsin, 2.0 g/L of EDTA•4Na and 8.5 g/L of NaCl, without Phenol Red, Invitrogen Code no. 15400-054) diluted in PBS solution. A 5 ml volume of Growth Medium was added to each flask (as above except that 5% (v/v) charcoal stripped FBS (HyClone Code no. SH30068.03) was included instead of 10% (v/v) FBS). Cells were syringed at least twice using a sterile 18G×1.5″ (1.2×40 mm) broad gauge needle and cell density was measured using a haemocytometer. Cells were further diluted in Growth Medium plus 5% (v/v) charcoal stripped FBS and seeded at a density of 6.5×10^3 cells per well (in 90 ul) into transparent, black, tissue culture treated 96 well plates (Packard, No. 6005182).
Test data reported herein was generated using two different compounds preparation and dosing methods. In method (1) a 10 mM compound stock solution in 100% (v/v) DMSO was serially diluted in 4-fold steps in 100% (v/v) DMSO using a Thermo Scientific Matrix SerialMate. The diluted compounds were then further diluted 1 in 30 in assay media using a Thermo Scientific Matrix PlateMate and a 10 μl aliquot of this dilution was dosed to cells manually using a multi-channel pipette. In method (2) starting with a 10 mM compound stock solution, the Labcyte Echo 550 was used to generate a compound concentration response set diluted in 30 μl of assay media. The Echo 550 is a liquid handler that uses acoustic technology to perform direct microplate-to-microplate transfers of DMSO compound solutions. The system can be programmed to transfer volumes as low as […] in multiple increments between microplates and in so doing generates a serial dilution of compound which is then back-filled to normalise the DMSO is concentration across the dilution range. A 10 μl volume of diluted compound is then dosed to cells using a Thermo Scientific Matrix PlateMate.
Plates were incubated overnight at 37° C., 5% CO2. Wells were then dosed with compound prepared by one of the 2 methods above and further incubated for 20-22 hours at 37° C., 5% CO2. Plates were fixed by the addition of 20 μl of 10% (v/v) formaldehyde solution (in PBS) to each well (final formaldehyde conc.=1.67% (v/v)) and left at room temperature for 10 mins. This fixative solution was removed and cells were washed with 250 μl of PBS/0.05% (v/v) Tween 20 (PBST) using an automated plate washer. This process was then repeated twice more.
Immunostaining was performed at room temperature. Cells were permeabilised by the addition of 35 μl of PBS containing 0.5% Tween 20 and incubated for 1 hour at room temperature. Permeabilisation solution was removed and cells were washed with 250 μl of PBST using an automated plate washer. This process was then repeated twice more. […]
Compound `Cc1cc(OCCN2CCN(C)C(=O)C2)ccc1C1(O)CCN(c2ccc3nnc(C(F)(F)F)n3n2)CC1` [Example 31, 4-[2-(4-{4-hydroxy-1-[3-(trifluoromethyl)[1,2,4]-triazolo[4,3-b]pyridazin-6-yl]piperidin-4-yl}-3-methylphenoxy)ethyl]-1-methylpiperazin-2-one] had an IC50 of 260 nM. The value for `CN1CCN(CCOc2ccc(C3CCN(c4ccc5nnc(C(F)(F)F)n5n4)CC3)cc2)CCC1=O` [Example 32, 4-methyl-1-[2-(4-{1-[3-(trifluoromethyl)[1,2,4]-triazolo[4,3-b]pyridazin-6-yl]piperidin-4-yl}phenoxy)ethyl]-1,4-diazepan-5-one] was 56 nM. Under `CC(=O)N1CCN(CCOc2ccc(C3CCN(c4ccc5nnc(C(F)(F)F)n5n4)CC3)cc2)C[C@@H]1C` [Example 33, 6-[4-(4-{2-[(3S)-4-acetyl-3-methylpiperazin-1-yl]ethoxy}phenyl)piperidin-1-yl]-3-(trifluoromethyl)[1,2,4]triazolo[4,3-b]pyridazine] stands 79 nM; under `CC(=O)N1CCN(CCOc2ccc(C3CCN(c4ccc5nnc(C(F)(F)F)n5n4)CC3)cc2)C[C@H]1C` [Example 34, 6-[4-(4-{2-[(3R)-4-acetyl-3-methylpiperazin-1-yl]ethoxy}phenyl)piperidin-1-yl]-3-(trifluoromethyl)[1,2,4]triazolo[4,3-b]pyridazine], 67 nM; under `CC(=O)N1CCN(CCOc2ccc(C3(O)CCN(c4ccc5nnc(C(F)(F)F)n5n4)CC3)c(F)c2)CC1` [Example 35, 4-{4-[2-(4-acetylpiperazin-1-yl)ethoxy]-2-fluorophenyl}-1-[3-(trifluoromethyl)[1,2,4]-triazolo[4,3-b]pyridazin-6-yl]piperidin-4-ol], 140 nM. Turning to `CN1CCN(CCOc2ccc(C3(O)CCN(c4ccc5nnc(C(F)(F)F)n5n4)CC3)c(F)c2)CC1=O` [Example 36, 4-[2-(3-fluoro-4-[4-hydroxy-1-[3-(trifluoromethyl)[1,2,4]triazolo[4,3-b]pyridazin-6-yl]piperidin-4-yl]phenoxy)ethyl]-1-methylpiperazin-2-one], the IC50 was found to be 73 nM.

For `CCN1CCN(CCOc2ccc(C3(O)CCN(c4ccc5nnc(C(F)(F)F)n5n4)CC3)cc2)CC1=O` [Example 37, 1-ethyl-4-[2-(4-{4-hydroxy-1-[3-(trifluoromethyl)[1,2,4]triazolo[4,3-b]pyridazin-6-yl]piperidin-4-yl}phenoxy)ethyl]piperazin-2-one], the IC50 is 390 nM.

`O=C1CN(CCOc2ccc(C3(O)CCN(c4ccc5nnc(C(F)(F)F)n5n4)CC3)cc2)CCN1C1CC1` [Example 38, 1-cyclopropyl-4-[2-(4-{4-hydroxy-1-[3-(trifluoromethyl)[1,2,4]triazolo[4,3-b]pyridazin-6-yl]piperidin-4-yl}phenoxy)ethyl]piperazin-2-one]: the IC50 was 490 nM. Under `CC(=O)N1CCN(CCOc2ccc(C3(O)CCN(c4ccc5nnc(C(F)(F)F)n5n4)CC3)cc2)C[C@H]1C` [Example 39, 4-(4-{2-[(3R)-4-acetyl-3-methylpiperazin-1-yl]ethoxy}phenyl)-1-[3-(trifluoromethyl) [1,2,4]triazolo[4,3-b]pyridazin-6-yl]piperidin-4-ol] stands 71 nM; under `CC(=O)N1CCN(CCOc2ccc(C3(O)CCN(c4ccc5nnc(C(F)(F)F)n5n4)CC3)cc2)C[C@@H]1C` [Example 40, 4-(4-{2-[(3S)-4-acetyl-3-methylpiperazin-1-yl]ethoxy}phenyl)-1-[3-(trifluoromethyl) [1,2,4]triazolo[4,3-b]pyridazin-6-yl]piperidin-4-ol], 63 nM. The compound `CC(=O)N1CCCN(CCOc2ccc(C3(O)CCN(c4ccc5nnc(C(F)(F)F)n5n4)CC3)c(F)c2)CC1` [Example 41, 4-{4-[2-(4-acetyl-1,4-diazepan-1-yl)ethoxy]-2-fluorophenyl}-1-[3-(trifluoromethyl)[1,2,4]triazolo[4,3-b]pyridazin-6-yl]piperidin-4-ol] gave an IC50 of 36 nM. With `CN1CCN(CCCOc2ccc(C3(O)CCN(c4ccc5nnc(C(F)(F)F)n5n4)CC3)c(F)c2)CC1=O` [Example 42, 4-[3-(3-fluoro-4-{4-hydroxy-1-[3-(trifluoromethyl)[1,2,4]triazolo[4,3-b]pyridazin-6-yl]piperidin-4-yl}phenoxy)propyl]-1-methylpiperazin-2-one], 170 nM corresponded to half-maximal inhibition (IC50).

Broadly, the IC50 is the point on the concentration scale where inhibition reaches its midpoint.
